Assay results: patent US8906896B2, “Platinum acridine anti-cancer compounds and methods thereof” (priority 2008, dated 2014)

Columns and labels:
[1] = test system: NCI-H460 NSCLC cell line; conditions: typical values; cited from earlier work
[2] = test system: NCI-H460 NSCLC cell line; experiment: Cytotoxicity (cell proliferation) assay, NCI-H460; format: cell-based
Description: Cytotoxicity Assay. Cytotoxicity studies were carried out according to a standard protocol (Guddneppanavar et al. 2006) using the Celltiter 96 Aqueous Non-Radioactive Cell Proliferation Assay kit (Promega, Madison, Wis.). […] IC50 values were calculated from non-linear curve fits using a sigmoidal dose-response equation in GraphPad Prism (GraphPad Software, La Jolla, Calif.).

[3] = H460 xenograft study in nude mice; format: in vivo; conditions: female, athymic nude, mouse, in vivo, ip, q4d×3, mice; dose B stated to be close to the MTD; read-out: maximum tolerated dose (MTD)
Description: (§1) Xenograft Study. H460 xenografts were established in nude athymic female mice via bilateral subcutaneous injections. Treatment began when the average tumor volume was approximately 100 mm^3. The tumor-bearing mice were randomized depending on tumor volume into three groups of five test animals each: one control group receiving vehicle only, one group treated at 0.1 mg/kg 5d/w×2 (A), and one group treated at 0.5 mg/kg q4d×3 (B). Animal weights and tumor volumes were measured and recorded for 17 days after the first dose was administered. Tumor volumes were determined using the formula:V (mm^3)=d^2×D/2, where d and D are the shortest and longest dimension of the tumor, respectively, and are reported as the sum of both tumors for each test animal. At the end of the study, all animals were euthanized and disposed of according to Standard Operating Procedures (SOPs). Statistical analysis of the growth curves was done using a non-linear polynomial random-coefficient model in SAS Proc Mixed (SAS Institute Inc., Cary, N.C.).
(§2) The antitumor activity of compound 14b was evaluated against H460 bilateral tumors implanted into athymic nude mice. […] Complex 14b was administered intraperitonealy (i.p.) according to the following dosing schedules: (A) 0.1 mg/kg, five days per week for two consecutive weeks (5d/w×2), and (B) 0.5 mg/kg, three doses given at 4-day intervals (q4d×3). The tumor volumes recorded in both treatment groups and in untreated control animals are plotted vs. days of treatment in FIG. 1. At the end of the study, the tumors measured 1834±160, 1798±309, and 1102±319 mm^3 (means±S.E.M.) for the control animals and animals treated according to schedules A and B, respectively.
(§3) Growth curves are shown for untreated control animals (open squares), and mice treated according to schedule A (filled triangles) and schedule B (filled circles). Measurement of tumor volumes began on day 0, and treatment began on day 4. Each data point represents the mean of 5 tumor volumes±S.E.M.

[4] = test system: H460 NSCLC tumors xenografted into nude mice; experiment: H460 xenograft study in nude mice; format: in vivo
Description: as §1, §2, §3

Compound | IC50 in H460 cells (typical) [1] | potency in H460 cells relative to the compounds of the invention (fold less potent) [2] | MTD at 17 days [3] | tolerated dose relative to cisplatin ([4]; administered i.p.) | effect on tumor growth ([4]; schedule A: 0.1 mg/kg i.p. 5d/w×2) | effect on tumor growth rate compared to control group ([4]; schedule B: 0.5 mg/kg i.p. q4d×3, P<0.01)
N.N.[Cl][Pt][Cl] [Cisplatin, cis-diamminedichloroplatinum] | micromolar range | at least 20 fold |  |  |  | 
CC/C(=[N]\[Pt]([NH2])([NH2])[Cl])N(C)CCNc1c2ccccc2nc2ccccc12 [Compound 14b] |  |  | ~0.5 mg/kg | an order of magnitude lower than those commonly applied for cisplatin | no effect on tumor growth | slowed the tumor growth rate significantly
